Assay results published in publication PMC11431137, “[^68Ga]Ga-DOTAGA-Glu(FAPi)2 Shows Enhanced Tumor Uptake and Theranostic Potential in Preclinical PET Imaging” (Diagnostics, 2024).
Where “and” joins values, the source holds several entries; their conditions need not be identical. Equal values may be shown once.

Tests used:
FAP = system: FAP; design: method as in PMID 36980775; details: cited from earlier work
FAP over PREP and DPP = system: FAP over PREP and DPP; design: method as in PMID 38999044; details: compared with DOTAGA.(SA.FAPi)2; cited from earlier work
[1] = logD7.4, shake flask method with n-octanol and phosphate-buffered saline (pH 7.4); type: physicochemical; details: n-octanol / PBS pH 7.4, shake flask
Description: The kinetic profile of [^68Ga]Ga-DOTAGA-Glu-(FAPi)2 is explained considering its low lipophilicity, estimated by measuring the logD7.4 value using the shake flask method with n-octanol and phosphate-buffered saline (pH 7.4). The logD7.4 of −2.5 ± 0.05 indicates good hydrophilicity, leading to renal excretion over biliary excretion. […] Moreover, the compound is more hydrophilic than the first-generation dimer [^68Ga]Ga-DOTAGA.(SA.FAPi)2 (−2.0 ± 0.1) ([25]), resulting in lower background uptake and higher tumor-to-background image contrast.

[2] = Stability of radiochemical purity (RCP) post-formulation by radio-HPLC; type: physicochemical; details: formulated in phosphate buffer (0.1 M, pH 7) with ethanol
Procedure: Gallium-68 chloride was obtained by eluting the ^68Ge/^68Ga generator (Galliapharm, Eckert & Ziegler, Berlin, Germany) with 0.1 M HCl. Ammonium acetate buffer (0.1 M, pH 5.5), and a DOTAGA-Glu(FAPi)2 stock solution (2 mg/mL) for labeling was prepared using water for ultratrace analysis (Merck, Darmstadt, Germany). [^68Ga]GaCl3 solution in 0.1 M HCl (500 µL, ca. 200 MBq ^68Ga) was mixed with ammonium acetate buffer (80 µL) and DOTAGA-Glu-(FAPi)2 stock solution (4 µL). The resulting mixture was placed on an agitating mixer and shaken at 600 rpm for 5 min at 60 °C. Afterward, the reaction mixture was diluted with 5 mL water and passed through a Strata-X 33 µm polymeric reversed-phase cartridge (Phenomenex, Torrance, CA, USA). The cartridge was rinsed with more water (0.3 mL) and eluted with absolute ethanol (0.5 mL). Ethanol was evaporated under nitrogen flow and gentle heating to 40 °C. The residue was resolubilized in an aliquot of fresh ethanol (20 µL) and further diluted with phosphate buffer (0.1 M, pH 7) to a total volume of 2 mL.
Radiochemical conversion (RCC) for the ^68Ga-labeling process and radiochemical purity (RCP) of the formulated [^68Ga]Ga-DOTAGA-Glu(FAPi)2 were assessed by radio-HPLC.

[3] = system: endogenously FAP-expressing xenografted mouse model, U87MG; assay: In vivo PET/CT imaging, organ distribution in U87MG xenografted mice
Description: Six-week-old female NMRI nude mice were purchased (Janvier, Le Genest-Saint-Isle, France) and housed in groups of 4–8 mice in individually ventilated cages under regular lighting conditions. They were fed a standard pathogen-free pellet diet and provided water ad libitum. All animal experiments were approved by The Animal Experiments Inspectorate in Denmark (2021-15-0201-01041). The animals were acclimatized for two weeks before study initiation.
To establish a tumor model, the mice were subcutaneously inoculated on the right flank with a human xenograft glioblastoma U87MG (HTB-14, ATCC, Manassas, VA, USA). These cells were cultivated in Dulbecco’s modified Eagle’s medium (DMEM) supplemented with fetal bovine serum (FBS) and penicillin–streptomycin (Pen/Strep). Tumor growth was monitored two times weekly using calipers.
After adequate tumor establishment, the animals were injected intravenously in the tail vein with 4.49 ± 0.04 MBq [^68Ga]Ga-DOTAGA-Glu(FAPi)2 in a 100 μL phosphate buffer (0.1 M, pH 7) with 1% ethanol (v/v). PET/CT imaging (Inveon, Siemens Healthineers, Knoxville, TN, USA) was performed immediately after injection, and PET data were acquired for 3000 s. The imaging protocol included a dynamic framing setup, with five consecutive frames of 600 s each, resulting in average time intervals of 0–10, 10–20, 20–30, 30–40, and 40–50 min post-injection. During imaging, body temperature was maintained using a heated platform.
PET images were reconstructed using the 3D-OSEM/SP-MAP algorithm, and attenuation correction was performed using the co-registered CT images. The activity concentration was decay-corrected to the time of injection and quantified using Inveon Research Workplace (IRW). Regions of interest were manually drawn on CT images to delineate organs and derive volume and activity. Subsequently, the percentage of injected dose per gram (% ID/g) was calculated for tumor, blood, liver, kidney, and muscle tissues for each frame.
All graphical representations of the data were generated using Prism version 10.1.0 (1994–2023, GraphPad Software, LLC, Boston, MA, USA). The results were expressed as the mean ± standard error of the mean (SEM).

[4] = 5 min post-injection, Mean±SEM, n = 4 mice
[5] = 5 min post-injection, individual mice M1-M4
[6] = 15 min post-injection, Mean±SEM, n = 4 mice
[7] = 15 min post-injection, individual mice M1-M4
[8] = 25 min post-injection, Mean±SEM, n = 4 mice
[9] = 25 min post-injection, individual mice M1-M4
[10] = 35 min post-injection, Mean±SEM, n = 4 mice
[11] = 35 min post-injection, individual mice M1-M4
[12] = 45 min post-injection, Mean±SEM, n = 4 mice, listed as [68Ga]Ga-DOTAGA-Glu-(FAPi)2
[13] = 45 min post-injection, Mean±SEM, n = 4 mice, listed as [^68Ga]Ga-DOTAGA-Glu-(FAPi)2
[14] = 45 min post-injection, individual mice M1-M4

## N#C[C@@H]1CC(F)(F)CN1C(=O)CNC(=O)c1ccnc2ccc(OCCCCNC(=O)CC[C@H](NC(=O)CCC(C(=O)O)N3CCN(CC(=O)O)CCN(CC(=O)O)CCN(CC(=O)O)CC3)C(=O)NCCCCOc3ccc4nccc(C(=O)NCC(=O)N5CC(F)(F)C[C@H]5C#N)c4c3)cc12 (stereo partly drawn) [DOTAGA-Glu(FAPi)2, 2,2′,2″-(10-(4-(((S)-1,5-bis((4-((4-((2-((S)-2-Cyano-4,4-difluoropyrrolidin-1-yl)-2-oxoethyl)carbamoyl)quinolin-6-yl)oxy)butyl)amino)-1,5-dioxopentan-2-yl)amino)-1-carboxy-4-oxobutyl)-1,4,7,10-tetraazacyclododecane-1,4,7-triyl)triacetic acid]
FAP
  IC50: 0.26 ± 0.04 nM
FAP over PREP and DPP
  selectivity for FAP over PREP and DPP: higher selectivity than DOTAGA.(SA.FAPi)2

## N#C[C@@H]1CC(F)(F)CN1C(=O)CNC(=O)c1ccnc2ccc(OCCCCNC(=O)CC[C@H](NC(=O)CCC(C(=O)O)N3CCN(CC(=O)[O-])CCN(CC(=O)[O-])CCN(CC(=O)[O-])CC3)C(=O)NCCCCOc3ccc4nccc(C(=O)NCC(=O)N5CC(F)(F)C[C@H]5C#N)c4c3)cc12.[68Ga+3] (some centres unmarked) [[^68Ga]Ga-DOTAGA-Glu(FAPi)2]
[1]
  logD7.4: −2.5 ± 0.05
[2]
  RCP stable post-formulation: at least 1 h
[3]; [4]
  Organ distribution, bladder: 3.96±0.42 %ID/g
  Organ distribution, kidney: 6.68±0.48 %ID/g
  Organ distribution, liver: 5.83±0.58 %ID/g
  Organ distribution, tumor: 2.55±0.38 %ID/g
  Tumor-to-blood ratio (TBR): 0.46±0.05
  Tumor-to-kidney ratio (TKR): 0.38±0.03
  Tumor-to-liver ratio (TLR): 0.43±0.03
  Tumor-to-muscle ratio (TMR): 3.66±0.13
[3]; [5]
  Organ distribution, bladder: 4.80 %ID/g and 4.51 %ID/g and 3.00 %ID/g and 3.51 %ID/g
  Organ distribution, blood: 5.98 %ID/g
  Organ distribution, kidney: 7.50 %ID/g and 7.11 %ID/g and 6.77 %ID/g and 5.32 %ID/g
  Organ distribution, liver: 6.93 %ID/g and 6.06 %ID/g and 6.15 %ID/g and 4.19 %ID/g
  Organ distribution, tumor: 3.52 %ID/g and 2.54 %ID/g and 1.66 %ID/g
  Tumor-to-blood ratio (TBR): 0.59 and 0.42 and 0.37 and 0.44
  Tumor-to-kidney ratio (TKR): 0.47 and 0.35 and 0.38 and 0.31
  Tumor-to-liver ratio (TLR): 0.51 and 0.41 (2×) and 0.40
  Tumor-to-muscle ratio (TMR): 3.52 and 3.35 and 3.91 and 3.86
[3]; [6]
  Organ distribution, bladder: 25±2.12 %ID/g
  Organ distribution, kidney: 7.08±0.56 %ID/g
  Organ distribution, liver: 4.02±0.15 %ID/g
  Organ distribution, tumor: 4.28±0.37 %ID/g
  Tumor-to-blood ratio (TBR): 0.92±0.10
  Tumor-to-kidney ratio (TKR): 0.61±0.05
  Tumor-to-liver ratio (TLR): 1.06±0.07
  Tumor-to-muscle ratio (TMR): 3.68±0.32
[3]; [7]
  Organ distribution, bladder: 20.10 %ID/g and 25.42 %ID/g and 30.39 %ID/g and 24.10 %ID/g
  Organ distribution, blood: 4.04 %ID/g
  Organ distribution, kidney: 6.09 %ID/g and 6.56 %ID/g and 8.67 %ID/g and 7.01 %ID/g
  Organ distribution, liver: 3.79 %ID/g and 3.93 %ID/g and 4.45 %ID/g and 3.92 %ID/g
  Organ distribution, tumor: 5.16 %ID/g and 3.44 %ID/g and 4.56 %ID/g
  Tumor-to-blood ratio (TBR): 1.04 and 0.69 and 1.13 and 0.84
  Tumor-to-kidney ratio (TKR): 0.75 and 0.60 and 0.59 and 0.49
  Tumor-to-liver ratio (TLR): 1.20 and 1.00 and 1.16 and 0.88
  Tumor-to-muscle ratio (TMR): 3.40 and 3.28 and 4.65 and 3.37
[3]; [8]
  Organ distribution, bladder: 42.54±5.06 %ID/g
  Organ distribution, kidney: 4.02±0.60 %ID/g
  Organ distribution, liver: 3.21±0.11 %ID/g
  Organ distribution, tumor: 4.49±0.45 %ID/g
  Tumor-to-blood ratio (TBR): 1.12±0.15
  Tumor-to-kidney ratio (TKR): 1.14±0.07
  Tumor-to-liver ratio (TLR): 1.40±0.12
  Tumor-to-muscle ratio (TMR): 3.71±0.40
[3]; [9]
  Organ distribution, bladder: 31.21 %ID/g and 41.63 %ID/g and 55.86 %ID/g and 41.46 %ID/g
  Organ distribution, blood: 3.66 %ID/g
  Organ distribution, kidney: 3.47 %ID/g and 3.78 %ID/g and 5.77 %ID/g and 3.07 %ID/g
  Organ distribution, liver: 2.94 %ID/g and 3.20 %ID/g and 3.49 %ID/g and 3.19 %ID/g
  Organ distribution, tumor: 5.65 %ID/g and 3.51 %ID/g and 4.60 %ID/g
  Tumor-to-blood ratio (TBR): 1.46 and 0.76 and 1.26 and 1.01
  Tumor-to-kidney ratio (TKR): 1.33 and 1.11 and 0.98 and 1.14
  Tumor-to-liver ratio (TLR): 1.56 and 1.31 and 1.62 and 1.10
  Tumor-to-muscle ratio (TMR): 3.57 and 3.36 and 4.87 and 3.03
[3]; [10]
  Organ distribution, bladder: 50.28±7.13 %ID/g
  Organ distribution, kidney: 2.78±0.44 %ID/g
  Organ distribution, liver: 2.88±0.08 %ID/g
  Organ distribution, tumor: 4.62±0.51 %ID/g
  Tumor-to-blood ratio (TBR): 1.29±0.21
  Tumor-to-kidney ratio (TKR): 1.70±0.10
  Tumor-to-liver ratio (TLR): 1.60±0.16
  Tumor-to-muscle ratio (TMR): 3.74±0.37
[3]; [11]
  Organ distribution, bladder: 35.81 %ID/g and 47.82 %ID/g and 69.95 %ID/g and 47.53 %ID/g
  Organ distribution, blood: 3.44 %ID/g
  Organ distribution, kidney: 2.39 %ID/g and 2.64 %ID/g and 4.04 %ID/g and 2.06 %ID/g
  Organ distribution, liver: 2.67 %ID/g and 2.93 %ID/g and 3.06 %ID/g and 2.85 %ID/g
  Organ distribution, tumor: 5.95 %ID/g and 3.52 %ID/g and 4.68 %ID/g
  Tumor-to-blood ratio (TBR): 1.85 and 0.85 and 1.36 and 1.11
  Tumor-to-kidney ratio (TKR): 1.96 and 1.64 and 1.47 and 1.71
  Tumor-to-liver ratio (TLR): 1.75 and 1.48 and 1.94 and 1.24
  Tumor-to-muscle ratio (TMR): 3.66 and 3.17 and 4.80 and 3.32
[3]; 45 min post-injection, Mean±SEM, n = 4 mice
  Organ distribution, bladder: 53.81±7.59 %ID/g
[3]; [12]
  Organ distribution, kidney: 2.16±0.21 %ID/g
  Organ distribution, liver: 2.73±0.09 %ID/g
  Organ distribution, tumor: 4.65±0.52 %ID/g
  Tumor-to-blood ratio (TBR): 1.38±0.25
  Tumor-to-kidney ratio (TKR): 2.15±0.08
  Tumor-to-liver ratio (TLR): 1.71±0.17
  Tumor-to-muscle ratio (TMR): 3.88±0.41
[3]; [13]
  Tumor-to-blood ratio (TBR): 1.4 ± 0.3
  Tumor-to-liver ratio (TLR): 1.7 ± 0.2
  Tumor-to-muscle ratio (TMR): 3.9 ± 0.4
[3]; [14]
  Organ distribution, bladder: 39.77 %ID/g and 49.32 %ID/g and 75.38 %ID/g and 50.79 %ID/g
  Organ distribution, kidney: 1.99 %ID/g and 2.17 %ID/g and 2.73 %ID/g and 1.74 %ID/g
  Organ distribution, liver: 2.47 %ID/g and 2.78 %ID/g and 2.91 %ID/g and 2.75 %ID/g
  Organ distribution, tumor: 4.40 %ID/g and 6.01 %ID/g and 3.52 %ID/g and 4.68 %ID/g
  Tumor-to-blood ratio (TBR): 1.19 and 2.06 and 0.88 and 1.38
  Tumor-to-kidney ratio (TKR): 2.35 and 2.03 and 2.20 and 2.02
  Tumor-to-liver ratio (TLR): 1.89 and 1.58 and 2.07 and 1.28
  Tumor-to-muscle ratio (TMR): 3.52 and 3.41 and 5.09 and 3.49
[3]; PET/CT, U87MG tumor-bearing mice
  clearance route: cleared mainly by the kidneys
